Read-outs that look alike come from different tables or passages of the source.
Tests used:
AuxB1 = test: In vitro susceptibility to multidrug resistance, continuous exposure IC50; assay type: cell-based, Chinese Hamster; details: Cricetulus griseus, AuxB1 (no multidrug resistance)
Description: (§1) Multidrug resistance mediated by p-glycoprotein and related transport proteins is an important means by which cancer cells evade cytotoxic drugs. […] IC50 values of several drugs were measured in continuous exposure assays in these two cell lines. The resistance factor was calculated as the ratio of these values. High values indicate high susceptibility to resistance.

CHrC5 = test: as above; assay type: cell-based, Chinese Hamster
Description: as §1

[1] = test system: melanoma tissue taken from a patient; test: Response of a melanoma taken directly from a cancer patient, xenograft in immunodeficient mice; assay type: in vivo, human; details: two doses of 5.9 mg/kg, 7 days apart
Description: Metastatic melanoma is particularly resistant to current chemotherapy. Melanoma tissue taken from a patient at surgery was implanted subcutaneously in immunodeficient mice. After three months, the tumour in one animal was excised and transferred to further immunodeficient mice. The tumours were grown to a diameter of approximately 4 mm before treatment and the compound of Formula II was administered in two doses of 5.9 mg/kg, 7 days apart.

Plasma pharmacokinetics = assay type: in vivo, mice; details: for AUC: read-out: area under the plasma concentration-time profile for the first 8 hours (AUC)
Description: The plasma pharmacokinetics of the compound of Formula II, were compared following intravenous, intraperitoneal and oral administration at a dose of 8.9 mg/kg (26 μmol/kg). Mice were terminally anaesthetised at various times up to 8 hours after drug administration and blood was taken for preparation of plasma samples. Plasma concentrations of the compound of Formula II were measured by high performance liquid chromatography-mass spectrophometry. The results are shown in FIG. 6, the vertical bars showing the standard deviation of the mean values from three mice per time point.
As expected from the rate of gastric emptying, the initial increase in plasma and liver drug concentrations occur later after oral administration than they do after intravenous or intraperitoneal administration, but the plasma and tissue half-lives are similar.

[2] = Plasma and tissue pharmacokinetics; assay type: in vivo, mice
Description: Plasma and tissue pharmacokinetics of the compound of Formula II, were compared following intraperitoneal administration at a dose of 8.9 mg/kg body weight. Mice were terminally anaesthetised at various times up to 75 hours after drug administration and tissue and blood was taken for preparation of samples. Plasma and tissue concentrations of the compound of Formula II were measured by high performance liquid chromatography-mass spectrophometry. The results are shown in FIG. 8, the vertical bars showing the standard deviation of the mean values from three mice per time point. The concentration of drug in plasma is very low on this scale (<100 nmol/kg), implying a high ratio of the concentration of cell-associated drug to that of external drug
Plasma and tissue pharmacokinetics, were further investigated following intraperitoneal administration of the compound of Formula II at a dose of 8.9 mg/kg. Mice were terminally anaesthetised at various times up to 75 hours after drug administration and tissue and blood was taken for preparation of samples. Plasma and tissue concentrations of the compound of Formula II were measured by high performance liquid chromatography-mass spectrophometry. The results are shown in FIG. 9, the vertical bars showing the standard deviation of the mean values from three mice per time point. The concentration differential (ie the slope of each plot) indicates the half life of the compound of Formula II in each tissue type and plasma. The half life of the compound of Formula II in various tissue types including liver, kidney, brain, heart and plasma, calculated from points on the concentration time curve, is approximately three hours. The half life of the compound of Formula II in tumour tissue, calculated from points on the concentration time curve, is approximately 9 hours. This is approximately a three-fold increase in the concentration differential in tumour tissue to non-tumour tissue and plasma concentration of Formula II. This effectively leads to an accumulation of the compound of Formula II in tumour tissue relative to other tissue.
The plasma and tissue pharmacokinetics of a compound of Formula II, were also compared with several well known cancer therapies as shown in FIG. 10. The analytical methods used to obtain data for other therapies varies and was taken from the literature. The AUC (area under the concentration-time curve) values of the compound of Formula II show approximately a 6-7 fold increase in concentration of Formula II in tumour tissue over liver tissue. The AUC values in plasma are negligible. A longer half life (higher concentration differential) in a particular tissue, leads to a larger AUC value (area under the concentration versus time curve). The AUC values provide an indication of the amount of each compound accumulated in a particular tissue or plasma over time.
The ability of different anticancer drugs to be retained selectively in tumour tissue can also be conveniently compared as the ratio of AUC values for a normal tissue versus a tumour tissue. […] Cancer Chemother Pharmacol. 1996; 38: 417-24), amsacrine and asulacrine (Kestell P, Paxton J W, Evans P C, Young D, Jurlina J L, Robertson I G C, Baguley B C. Disposition of amsacrine and its analogue 9-((2-methoxy-4-[(methylsulfonyl)-amino]phenyl)amino)-N,5-dimethyl-4-acridinecarboxamide (CI-921) in plasma, liver, and Lewis lung tumors in mice. Cancer Res 1990; 50: 503-508) and DACA (Kestell P, Dunlop I, McCrystal M R, Evans B D, Paxton J W, Gamage R S K A, Baguley B C. Plasma pharmacokinetics of DACA (N-[2-(dimethylamino)-ethyl]-acridine-4-carboxamide) in a phase I trial. Cancer Chemother Pharmacol 1999; 44: 45-50). Similar analytical methods, employing high performance liquid chromatography, were used. […]

[3] = test system: survivin in HCT116 (TP53 wild type); test: Inhibition of survivin production, western blotting; assay type: cell-based, human; details: various concentrations, 24 hours
Description: Survivin is a protein that is expressed selectively in many types of cancer cells and which is known to be associated with resistance to apoptosis (Zaffaroni N and Daidone M G. Survivin expression and resistance to anticancer treatments: perspectives for new therapeutic interventions. Drug Resistance Updates: Reviews and Commentaries in Antimicrobial and Anticancer Chemotherapy. 2002 5(2):65-72). […] Extracts were prepared, proteins were separated by electrophoresis and survivin expression was determined by western blotting.

JLA = test: In vitro cell proliferation assay, continuous drug exposure; assay type: cell-based; details: Homo sapiens; JLA (reduced topoisomerase II), continuous drug exposure 3-5 days
Description: The results with the JLA and JLD lines, which have reduced topoisomerase II content as compared to the parental Jurkat line, indicate that the IC50 value of the compound is increased with decreased topoisomerase content. This is also the case for etoposide, amsacrine, DACA and doxorubicin.

[4] = intraperitoneal administration, 8.9 mg/kg, mice
[5] = intravenous administration, 8.9 mg/kg, mice
[6] = intraperitoneal 8.9 mg/kg, mice

SMILES: Cc1cccc2cc3c(=O)n(C)cc(C(=O)NCCN(C)C)c3nc12 [Formula II, N-[2-(dimethylamino)ethyl]-2,6 dimethyl-1-oxo-1,2-dihydrobenzo[b]-1,6-naphthyridine-4-carboxamide]
- IC50 (AuxB1): 3.5 nM
- IC50 (CHrC5; Cricetulus griseus, CHrC5 (multidrug resistant), continuous exposure): 5.2 nM
- Resistance factor (CHrC5; ratio of IC50 values in CHrC5 and AuxB1): 1.5
- melanoma growth [1]: strong inhibition of melanoma growth
- time-concentration profiles (plasma and liver) for the different routes of administration (Plasma pharmacokinetics; i.p., i.v. and p.o., non tumour bearing mice): quite comparable
- maximum plasma concentration (Plasma pharmacokinetics; [4]): 0.57 µM
- time at which maximum plasma concentration achieved (Plasma pharmacokinetics; [4]): 0.5 h
- maximum plasma concentration (Plasma pharmacokinetics; [5]): 1.24 µM
- time at which maximum plasma concentration achieved (Plasma pharmacokinetics; [5]): 0.08 h
- AUC (Plasma pharmacokinetics; mouse, plasma, ip, intraperitoneal administration, 8.9 mg/kg, mice): 1.63 µM·h
- bioavailability (Plasma pharmacokinetics; mouse, plasma, oral, relative to intraperitoneal administration, 8.9 mg/kg, mice, read-out: bioavailability following oral administration): 63%
- half-life (Plasma pharmacokinetics; mouse, plasma, all three routes of administration (i.v., i.p., oral), 8.9 mg/kg, mice, read-out: terminal plasma half life (converted)): ~210 min
- AUC (Plasma pharmacokinetics; mouse, plasma, intravenous administration, 8.9 mg/kg, mice): 1.99 µM·h
- AUC (Plasma pharmacokinetics; mouse, plasma, oral administration, 8.9 mg/kg, mice): 1.03 µM·h
- maximum plasma concentration (Plasma pharmacokinetics; oral administration, 8.9 mg/kg (26 μmol/kg), mice): 0.27 µM
- time at which maximum plasma concentration achieved (Plasma pharmacokinetics; oral administration, 8.9 mg/kg, mice): 2 h
- ratio of AUC values (tumour/liver) ([2]; compared with doxorubicin, amsacrine, asulacrine and DACA): clearly superior
- half life in liver, kidney, brain, heart and plasma [2, 6]: approximately three
- increase in the concentration differential in tumour tissue to non-tumour tissue and plasma [2, 6]: approximately three
- concentration of drug in plasma ([2]; intraperitoneal 8.9 mg/kg, mice, up to 75 hours): < 100 nmol/kg
- AUC: increase in concentration in tumour tissue over liver tissue ([2]; mice): 6-7 fold
- half-life ([2]; mouse, ip, colon 38 tumour tissue, intraperitoneal 8.9 mg/kg, mice): ~540 min
- AUC values in plasma ([2]; relative to tissue AUC, mice): negligible
- survivin expression [3]: suppress survivin production
- IC50 (JLA): 38 nM
